Source: publication PMC7515829, “HKDC1 C-terminal based peptides inhibit extranodal natural killer/T-cell lymphoma by modulation of mitochondrial function and EBV suppression” (Leukemia, 2020)

Experiments:
ABCB1 = test: mRNA level by qPCR in SNK6 cells; assay type: cell-based, human; conditions: 0.5 µM peptide, 6 h, vs CTL, n = 4 (Fig. 3f)
Protocol: Fig. 3 Peptide for the last eight aa of HKDC1 at the C-terminal (Tf-D-HKC8) inhibits EBV replication and P-gp expression through ROS generation and DNA damage in ENKTL cells. SNK6 cells were treated with control (CTL), Tf-D-HKN15, Tf-D-HKC15, or Tf-D-HKC8 peptide (0.5 µM) for 6 h and the cells were used for biomedical analysis. a ROS formation, n = 5. b 3-nitrotyrosine (3-NT) formation, n = 5. c 8-OHdG formation, n = 5. d Quantitation of γH2AX formation, n = 5. e Representative western blotting bands for d. f mRNA level by qPCR for BZLF1, BMRF1, and ABCB1, n = 4. g Protein quantitation for Zta, EA-D, and P-gp, n = 5. h Representative pictures of western blots for g. i EBV viral genomes/cell by qPCR, n = 4. *P < 0.05, vs CTL group; ^¶P < 0.05, vs Tf-D-HKC15 group. Results were expressed as mean ± SEM.

SNK6 cells [1] = test: Cell proliferation by thymidine incorporation; assay type: cell-based, human; conditions: 0.5 µM peptide, 6 h, vs CTL, n = 5 (Fig. 5a)
Protocol: DNA synthesis by [^3H]-thymidine incorporation. Cell proliferation was evaluated as the rate of DNA synthesis by [^3H]-methylthymidine incorporation (17). […] At the end of the treatment, cells were incubated with serum-free media containing ^3H-methylthymidine (0.5 µCi/well) for 2 hours and then washed twice with PBS. Cellular DNA was precipitated using 10% trichloroacetic acid and solubilized with 0.4M NaOH (0.5 ml/well). Incorporation of ^3H-methylthymidine into the DNA was measured in a scintillation counter and was determined as counts per minute (CPM) (8).

HKDC1/VDAC1 [2] = molecular target: T1, HKDC1/VDAC1 (Homo sapiens, UniProt P21796); test: IP/WB association of HKDC1 with VDAC1 in HANK1 cells; assay type: cell-based; set-up: endogenous in cells; conditions: 0.5 µM peptide, 6 h, compared with CTL group, n = 5 (Fig S3)
T1 sequence (P21796 2-283 limits assumed): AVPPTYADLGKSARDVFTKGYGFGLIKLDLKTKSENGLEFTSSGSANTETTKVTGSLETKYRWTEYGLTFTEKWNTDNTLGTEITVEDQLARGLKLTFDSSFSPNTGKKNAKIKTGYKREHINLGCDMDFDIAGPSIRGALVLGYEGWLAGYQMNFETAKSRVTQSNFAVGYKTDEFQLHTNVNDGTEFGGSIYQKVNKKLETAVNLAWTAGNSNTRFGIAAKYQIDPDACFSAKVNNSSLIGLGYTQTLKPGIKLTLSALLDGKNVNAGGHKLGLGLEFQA
Protocol: (§1) Immunoprecipitation (IP) and Western Blotting (WB). Cell lysates were pre-cleared by pre-immune IgG plus Protein A agarose beads for 2 hours, and the supernatants were immunoprecipitated by the indicated antibodies and a 50% slurry of Protein A Agarose beads overnight at 4 °C (9). After washing with buffer containing 50 mM Tris, pH 7.5, 150 mM NaCl, 1% NP-40, and 0.5% deoxycholate with protease inhibitors, proteins were released, separated on 10% SDS-PAGE gels, blotted by primary antibodies, and then simultaneously incubated with the differentially labeled species-specific secondary antibodies, anti-RABBIT IRDye™ 800CW (green) and anti-MOUSE (or goat) ALEXA680 (red). Membranes were scanned and quantitated by the ODYSSEY Infrared Imaging System (LI-COR, NE) (10).
(§2) Figure S3. Peptide Tf-D-HKC8 dissociates HKDC1 from VDAC1 in cancer cells, but little effect on normal cells. Different cells, including HMECS, HANK1 and SW480, were treated by either control (CTL) or Tf-D-HKC8 peptide (0.5µM) for 6 hours, and the cells were used for IP/WB analysis. (a) Representative western blotting bands for IP/WB. (b) Protein quantitation for IP/WB for (a), n=5. *, P<0.05, vs CTL group. Results were expressed as mean ± SEM.

HKDC1/VDAC1 [3] = molecular target: T1, HKDC1/VDAC1; test: IP/WB HKDC1 binding with VDAC1 in xenograft tumor tissue; assay type: in vivo, mouse; set-up: from tissue; host or cells: SNK6 xenograft tumor tissue from Balb/c athymic nude mice; conditions: SNK6 xenograft, nude mice; intratumoral 50 µM peptide every 2 days from day ~18; tissue day 50; IP/WB vs CTL; n = 5
Protocol: as §1
(§3) Biomedical analysis of tumor tissues.

SNK6 xenograft = test: Tumor growth by H&E staining (tumor spots); assay type: in vivo, mouse; conditions: nude mice, intratumoral 50 µM peptide every 2 days from day ~18, tissue day 50, vs CTL, n = 5
Excerpt: as §3

SNK6 cells [4] = test: ROS formation (CM-H2DCFDA); assay type: cell-based, human; conditions: 0.5 µM peptide, 6 h, compared with CTL group, n = 5 (Fig. 3a)
Protocol: Measurement of ROS generation. Treated cells were seeded in a 24-well plate and incubated with 10μM CM-H2DCFDA (Invitrogen) for 45 min at 37°C, and then the intracellular formation of reactive oxygen species (ROS) was measured at excitation/emission wavelengths of 485/530nm using a FLx800 microplate fluorescence reader (Bio-Tek). The data was normalized as arbitrary units (8, 11).

HKDC1/VDAC1 [5] = molecular target: T1, HKDC1/VDAC1; test: IP/WB association of HKDC1 with VDAC1 in HMECs; assay type: cell-based; set-up: endogenous in cells; conditions: 0.5 µM peptide, 6 h, compared with CTL group, n = 5 (Fig S3)
Protocol: as §1, §2

HKDC1/VDAC1 [6] = molecular target: T1, HKDC1/VDAC1; test: IP/WB association of HKDC1 with VDAC1 in SW480 cells; assay type: cell-based; set-up: endogenous in cells; conditions: 0.5 µM peptide, 6 h, compared with CTL group, n = 5 (Fig S3)
Protocol: as §1, §2

Row | Substance | ABCB1 mRNA (ABCB1) [%] | thymidine incorporation (SNK6 cells [1]) [%] | association of HKDC1 with VDAC1 in HANK1 cells (HKDC1/VDAC1 [2]) [%] | HKDC1 binding with VDAC1 in tumor (HKDC1/VDAC1 [3]) [%] | tumor growth using H&E staining (tumor spots) (SNK6 xenograft) [%] | ROS formation (SNK6 cells [4]) [%] | association of HKDC1 with VDAC1 in HMECs (HKDC1/VDAC1 [5]) | association of HKDC1 with VDAC1 in SW480 cells (HKDC1/VDAC1 [6]) [%]
1 | HAIYPRH-LQQAQKEN [Tf-D-HKC8] | 27 | 28 | 34 | 38 | 23 | 229 | little effect | 67
2 | HAIYPRH-ITAVAKRLQQAQKEN [Tf-D-HKC15] | 58 | 71 | – | 71 | 56 | 165 | – | –
